From US10239849B2 (Merck Sharp & Dohme Corp., priority 2015, dated 2019)
pEC50: −log10 of the molar value.

Assays:
[1] = biological target: T1, glutathione-S-transferase (GST) tagged LXRalpha LBD (ligand binding domain) (Homo sapiens, UniProt Q13133); test: LanthaScreen TR-FRET Liver X Receptor Coactivator Assay, LXR alpha-LBD; format: biochemical; conditions: for Emax: efficacy in relation to reference dual agonist T1317, read-out: LXR alpha activity at max dose (%) (Emax); for pEC50: potency (Inflection Point) of co-activator recruitment, TR-FRET, read-out: LXR alpha IP
T1 construct: purchased Invitrogen pv4655
T1 sequence (Q13133 209-447 limits assumed): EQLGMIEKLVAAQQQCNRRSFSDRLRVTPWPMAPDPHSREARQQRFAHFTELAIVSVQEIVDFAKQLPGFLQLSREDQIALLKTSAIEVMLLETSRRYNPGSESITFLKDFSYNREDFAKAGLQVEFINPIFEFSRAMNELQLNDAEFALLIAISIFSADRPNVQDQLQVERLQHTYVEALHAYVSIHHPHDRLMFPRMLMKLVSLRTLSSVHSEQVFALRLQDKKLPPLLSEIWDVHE
Summary of the method: (§1)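 Measures ligand-driven coactivator peptide binding by time-resolved energy transfer between terbium-tagged anti-GST antibody and fluorescein-labelled peptide. Incubation is at room temperature.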

[2] = biological target: T2, glutathione-S-transferase (GST) tagged LXRbeta LBD (ligand binding domain) (Homo sapiens, UniProt P55055); test: LanthaScreen TR-FRET Liver X Receptor Coactivator Assay, LXR beta-LBD; format: biochemical; conditions: for Emax: efficacy in relation to reference dual agonist T1317, read-out: LXR beta activity at max dose (%) (Emax); for pEC50: potency (Inflection Point) of co-activator recruitment, TR-FRET, read-out: LXR beta IP
T2 construct: purchased Invitrogen pv4658.pps
T2 sequence (P55055 222-460 limits assumed): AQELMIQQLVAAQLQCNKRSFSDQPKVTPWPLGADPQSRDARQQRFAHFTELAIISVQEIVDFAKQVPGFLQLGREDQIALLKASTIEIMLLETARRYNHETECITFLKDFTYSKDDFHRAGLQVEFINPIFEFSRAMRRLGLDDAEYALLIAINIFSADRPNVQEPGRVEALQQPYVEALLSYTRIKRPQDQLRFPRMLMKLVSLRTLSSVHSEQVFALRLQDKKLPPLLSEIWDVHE
Summary of the method: as §1

SMILES | Emax [1] [%] | pEC50 [1] | Emax [2] [%] | pEC50 [2]
CN(C)C(=O)c1ccc(-c2ccc(N3CC4CCC(C3)N4C(=O)OC(C)(C)C)cc2)cc1Cl [Example 8-3, tert-butyl 3-[3′-chloro-4′-(dimethylcarbamoyl)biphenyl-4-yl]-3,8-diazabicyclo[3.2.1]octane-8-carboxylate] | 64 | 4.93 | 87 | 6.72
CN(C)C(=O)c1ccc(-c2ccc(N3CC4CCC3CN4C(=O)OC(C)(C)C)cc2)cc1Cl (stereo not drawn) [Example 8-4, tert-butyl 5-[3′-chloro-4′-(dimethylcarbamoyl)biphenyl-4-yl]-2,5-diazabicyclo[2.2.2]octane-2-carboxylate] | 73 | 5.82 | 78 | 7.49
CN(C)C(=O)c1ccc(-c2cnc(N3CC4CCC(C3)N4C(=O)OC(C)(C)C)c(C#N)c2)cc1Cl [Example 8-7, tert-butyl 3-{5-[3-chloro-4-(dimethylcarbamoyl)phenyl]-3-cyanopyridin-2-yl}-3,8-diazabicyclo[3.2.1]octane-8-carboxylate] | 52 | 5.79 | 71 | 7.51
CN(C)C(=O)c1ccc(-c2ccc(N3CC4CCC(C3)N4C(=O)OC(C)(C)C)c(Cl)c2)cc1Cl [Example 8-10, tert-butyl 3-[3,3′-dichloro-4′-(dimethylcarbamoyl)biphenyl-4-yl]-3,8-diazabicyclo[3.2.1]octane-8-carboxylate] | 64 | 6.18 | 63 | 7.15
CN(C)C(=O)c1ccc(-c2cnc(N3C4CCC3C3CCC4N3C(=O)OC(C)(C)C)c(C#N)c2)cc1Cl [Example 8-11, tert-butyl 10-{5-[3-chloro-4-(dimethylcarbamoyl)phenyl]-3-cyanopyridin-2-yl}-9,10-diazatricyclo[4.2.1.1~2,5~]decane-9-carboxylate] | 41 | 4.96 | 57 | 5.98
CN(C)C(=O)c1ccc(-c2cnc(N3CCN(C(=O)OC(C)(C)C)C(c4ccccc4)C3)c(C#N)c2)cc1Cl (stereo not drawn) [Example 8-12, tert-butyl 4-{5-[3-chloro-4-(dimethylcarbamoyl)phenyl]-3-cyanopyridin-2-yl}-2-phenylpiperazine-1-carboxylate] | 40 | 6.02 | 70 | 8.22
CN(C)C(=O)c1ccc(-c2cnc(N3CCN(C(=O)OC(C)(C)C)CC3Cc3ccccc3)c(C#N)c2)cc1Cl (stereo not drawn) [Example 8-13, tert-butyl 3-benzyl-4-{5-[3-chloro-4-(dimethylcarbamoyl)phenyl]-3-cyanopyridin-2-yl}piperazine-1-carboxylate] | 78 | 6.27 | 120 | 7.74
CN(C)C(=O)c1ccc(-c2ccc(N3CC4CCC(C3)N4S(=O)(=O)c3c(Cl)cccc3Cl)cc2)cc1Cl [Example 8-14, 3-chloro-4′-{8-[(2,6-dichlorophenyl)sulfonyl]-3,8-diazabicyclo[3.2.1]oct-3-yl}-N,N-dimethylbiphenyl-4-carboxamide] | 37 | 5.46 | 118 | 7.12
CN(C)C(=O)c1ccc(-c2ccc(N3CC4CCC(C3)N4S(=O)(=O)c3c(Cl)cccc3Cl)c(Cl)c2)cc1Cl [Example 8-16, 3,3′-dichloro-4′-{8-[(2,6-dichlorophenyl)sulfonyl]-3,8-diazabicyclo[3.2.1]oct-3-yl}-N,N-dimethylbiphenyl-4-carboxamide] | 79 | 6.24 | 82 | 7.43

Continued, values first:

Emax [1] [%] | pEC50 [1] | Emax [2] [%] | pEC50 [2] | SMILES
28 | 4.59 | 73 | 6.07 | COc1cc(-c2cnc(N3CCN(C(=O)OC(C)(C)C)CC3)c(C#N)c2)ccc1C(=O)N(C)C [Example 8-2, tert-butyl 4-{3-cyano-5-[4-(dimethylcarbamoyl)-3-methoxyphenyl]pyridin-2-yl}piperazine-1-carboxylate]
37 | 4.77 | 53 | 6.60 | CN(C)C(=O)c1ccc(-c2cnc(N3CC4CC3CN4C(=O)OC(C)(C)C)c(C#N)c2)cc1Cl (stereo not drawn) [Example 8-5, tert-butyl 5-{5-[3-chloro-4-(dimethylcarbamoyl)phenyl]-3-cyanopyridin-2-yl}-2,5-diazabicyclo[2.2.1]heptane-2-carboxylate]
68 | 4.89 | 78 | 7.24 | CC1CN(c2ncc(-c3ccc(C(=O)N(C)C)c(Cl)c3)cc2C#N)CCN1C(=O)OC(C)(C)C (stereo not drawn) [Example 8-6, tert-butyl 4-{5-[3-chloro-4-(dimethylcarbamoyl)phenyl]-3-cyanopyridin-2-yl}-2-methylpiperazine-1-carboxylate]
38 | 6.05 | 68 | 7.19 | CN(C)C(=O)c1ccc(-c2cnc(N3CC4CCC3CN4C(=O)OC(C)(C)C)c(C#N)c2)cc1Cl (stereo not drawn) [Example 8-8, tert-butyl 5-{5-[3-chloro-4-(dimethylcarbamoyl)phenyl]-3-cyanopyridin-2-yl}-2,5-diazabicyclo[2.2.2]octane-2-carboxylate]
30 | 4.96 | 73 | 5.78 | CN(C)C(=O)c1ccc(-c2cnc(N3CCN(C(=O)OC(C)(C)C)CC3)c(C#N)c2)cc1C(F)(F)F [Example 8-9, tert-butyl 4-{3-cyano-5-[4-(dimethylcarbamoyl)-3-(trifluoromethyl)phenyl]pyridin-2-yl}piperazine-1-carboxylate]
54 | 5.41 | 81 | 6.75 | CN(C)C(=O)c1ccc(-c2ccc(N3CCN(C(=O)OC(C)(C)C)CC3)c(C#N)c2)cc1Cl [Example 8-15, tert-butyl 4-[3′-chloro-3-cyano-4′-(dimethylcarbamoyl)biphenyl-4-yl]piperazine-1-carboxylate]
41 | 5.13 | 71 | 6.37 | CCc1cc(-c2cnc(N3CCN(C(=O)OC(C)(C)C)CC3)c(C#N)c2)ccc1C(=O)N(C)C [Example 8-17, tert-butyl 4-{3-cyano-5-[4-(dimethylcarbamoyl)-3-ethylphenyl]pyridin-2-yl}piperazine-1-carboxylate]
48 | 5.87 | 61 | 7.26 | CN(C)C(=O)c1ccc(-c2cnc(N3CCN(C(=O)OC(C)(C)C)CC3)c(Cl)c2)cc1Cl [Example 9-1, tert-butyl 4-(3-chloro-5-(3-chloro-4-(dimethylcarbamoyl)phenyl)pyridin-2-yl)piperazine-1-carboxylate]
38 | 5.46 | 49 | 6.79 | C=Cc1cc(-c2ccc(C(=O)N(C)C)c(Cl)c2)cnc1N1CCN(C(=O)OC(C)(C)C)CC1 [Example 9-2, tert-butyl 4-{5-[3-chloro-4-(dimethylcarbamoyl)phenyl]-3-ethenylpyridin-2-yl}piperazine-1-carboxylate]
34 | 4.52 | 57 | 6.14 | CN(C)C(=O)c1ccc(-c2cnc(N3CCN(C(=O)OC(C)(C)C)CC3)c(CO)c2)cc1Cl [Example 9-3, tert-butyl 4-{5-[3-chloro-4-(dimethylcarbamoyl)phenyl]-3-(hydroxymethyl)pyridin-2-yl}piperazine-1-carboxylate]
39 | 5.33 | 68 | 6.17 | CN(C)C(=O)c1ccc(-c2cnc(N3CCN(C(=O)OC(C)(C)C)CC3)c(C#N)c2)cc1C1CC1 [Example 9-4, tert-butyl 4-{3-cyano-5-[3-cyclopropyl-4-(dimethylcarbamoyl)phenyl]pyridin-2-yl}piperazine-1-carboxylate]
49 | 5.63 | 59 | 7.21 | C#Cc1cc(-c2ccc(C(=O)N(C)C)c(Cl)c2)cnc1N1CCN(C(=O)OC(C)(C)C)CC1 [Example 9-5]
